# Patent US5304473A (Eli Lilly and Company, priority 1991, dated 1994)
# Key:
# [1] = test system: human placental IGF-I receptor; test: Human placental IGF-I receptor binding assay (competition with 125I IGF-I); conditions: human placental membranes
# Procedure: (§1) Metab., Vol.67, pgs. 194-197, the entire teaching of which is hereby incorporated by reference, except that the incubation was performed at 4° C. for 18 hours and membranes were collected on a Skatron Cell Harvester (commercially available from Skatron, Inc., Sterling, Va.). The glucose transport assay in rat adipocytes was performed in substantial accordance with the teachings of Kashwagi, M., et al., (1983) J. Clin, Invest., Vol.72, pgs. 1246-1254, the entire teaching of which is hereby incorporated by reference.
# [2] = test system: human placental insulin receptor; test: Human placental insulin receptor binding assay (competition with 125I insulin); conditions: placental membrane insulin receptors
# Procedure: as §1
# [3] = test system: fasted, male, lean Sprague-Dawley rats; test: In vivo hypoglycemic effect in fasted rats; set-up: species or system rat; conditions: for Max. hypoglycemic effect (percent) 1 hour: 1 hour after subcutaneous administration; for Max. hypoglycemic effect (percent) 1 hour / Max. hypoglycemic effect (percent) 2 hours: percent change from zero time corrected for control group; for Max. hypoglycemic effect (percent) 1 hour / Max. hypoglycemic effect (percent) 2 hours / ED50 1 hour / ED50 2 hours: mean ± S.E.M.; for Max. hypoglycemic effect (percent) 2 hours: 2 hours after subcutaneous administration; for ED50 1 hour: half the maximal hypoglycemic activity 1 hour after subcutaneous administration; for ED50 2 hours: half the maximal hypoglycemic activity 2 hours after subcutaneous administration
# Procedure: The data presented in Table III were obtained in tests carried out in fasted, male, lean Sprague-Dawley rats (Charles River Laboratories).
# In vivo activity of ACB-proinsulins was determined in fasted rats. Male, lean Sprague-Dawley rats (obtained from Charles River Laboratories, Wilmington, Mass. 01887) 190-210 g bodyweight, were fasted for 16 hours. Ten animals were chosen at random and divided into two groups of five rats each. The control group received a subcutaneous saline injection (0.1 ml per 100 g bodyweight) while the experimental groups received a saline injection containing the test peptide. Blood (0.1 ml) was obtained from the tail of each rat for glucose determination (Sigma Diagnostics, glucose [Trinder], address) before administration of the peptide and again at 30 minutes, 1, 2, 3 and 4 hours after administration of the peptide.
# The mean percent change from zero time plus or minus S.E.M. in blood glucose for control and treated groups of rats were calculated and the final results expressed by adjusting the change in the experimental group for the change in the control group. The effect of 5 to 7 different doses of each peptide was routinely determined.
# [4] = test system: rat adipocytes; test: Glucose transport assay in rat adipocytes; assay type: cell-based; conditions: glucose uptake by adipocytes
# Procedure: as §1
Substance,ED50 IGF-I Receptor [1] [nM],ED50 Insulin Receptor [2] [nM],Max. hypoglycemic effect (percent) 1 hour [3] [%],"Relative biological action to insulin 1 hour ([3]; 1 hour, subcutaneous, insulin = 100.0)",Max. hypoglycemic effect (percent) 2 hours [3] [%],"Relative biological action to insulin 2 hours ([3]; 2 hours, subcutaneous, insulin = 100.0)",ED50 1 hour [3] [nM],ED50 2 hours [3] [nM],time of maximal hypoglycemic response after subcutaneous administration ([3]; s.c. administration) [h],ED50 Glucose Transport [4] [nM],time at which blood glucose levels returned to baseline ([3]; s.c. administration) [h]
"IGF-I: human IGF-I, reference ligand of the IGF-I receptor",0.45,,,,,,,,,,
"Proinsulin: naturally occurring human (BCA) proinsulin, reference",10000,20.4,55.1 ± 2.6,14.3 ± 2.8,61.0 ± 4.0,19.5 ± 1.8,91. ± 1.7,8.2 ± 0.8,2,,
"Insulin: human insulin, two-chain protein hormone, reference",,,59.0 ± 4.3,,45.7 ± 6.7,,1.0 ± 0.01,1.6 ± 0.09,1,0.043,3 to 4
